# How the values were obtained:
# Assay type in all cases: cell-based
# [1] = tested on: 60 human subpanel cancer cell lines; assay: NCI 60 antitumor screening, mean over the panel (single dose); conditions: mean over 60 cancer cell lines, single dose 10 μM
# Protocol: Initially, the anticancer effects of target compounds have been assessed at a single (10 μM) dose. The obtained data have been reported as mean-graph of the percent growth (G%) of the treated cancer cells. Percentage growth inhibition (GI%) is calculated (100 − G%) and pronounced in Table 1. […] Target compounds in series (III) with manipulated linkers disclosed lower potency. Superiorly, eight s-triazine derivatives from the three series (6a, 6c, 6d, 7a, 7g, 7i, 7l, and 8b) have shown potent broad-spectrum anticancer activity against most the examined cell lines, whereas most of the remaining triazine derivatives, 20 derivatives, have exerted selective anti-proliferative actions towards certain cancer cell lines (Supplementary).
# The antitumor screening was performed for 60 human cancer cell lines under the protocol of NCI (www.dtp.nci.nih.gov), the Drug Evaluation Branch, Bethesda, MD. All submitted compounds were nominated based on the degree of structural diversity and computer modelling techniques for evaluation of their anticancer activity. The screening process for antineoplastic activity passes through two successive levels, starting with the assessment of target compounds at a single dose of 10 μM against 60 cancer cell lines on nine types of human tumours. These experiments were done on a triplicate following. The output from the single‐dose screening was covered as a mean graph, and then, analysed by the COMPARE program. Finally, the compounds which disclosed subpanel cancer cell growth (G %) equal to or less than 10% in at least eight cancer cell lines get to pass the assessment against the 60 cell lines at five doses (0.01–100 μM). By using GraphPad Prism version 9.0 (Graphpad Software Inc., La Jolla, CA), GI50, TGI, as well as LC50 dose‐response parameters were computed and presented for each compound (Supplementary information)[55–57].
# NCI/ADR-RES = assay: NCI 60 antitumor screening (single dose / five doses); conditions: Homo sapiens; NCI/ADR-RES (ovarian cancer), single dose 10 μM; read-out: Growth inhibition percentage (GI %)
# A498 = assay: as above; conditions: Homo sapiens; A498 (renal cancer), single dose 10 μM; read-out: Growth inhibition percentage (GI %)
# DU-145 = assay: as above; conditions: Homo sapiens; DU-145 (prostate cancer), single dose 10 μM; read-out: Growth inhibition percentage (GI %)
# COLO 205 = assay: as above; conditions: Homo sapiens; COLO 205 (colon cancer), single dose 10 μM; read-out: Growth inhibition percentage (GI %)
# MDA-MB-231/ATCC = assay: as above; conditions: Homo sapiens; MDA-MB-231/ATCC (breast cancer), single dose 10 μM; read-out: Growth inhibition percentage (GI %)
# MDA-MB-435 = assay: as above; conditions: Homo sapiens; MDA-MB-435 (melanoma), single dose 10 μM; read-out: Growth inhibition percentage (GI %)
# HL-60(TB) = assay: as above; conditions: Homo sapiens; HL-60(TB) (leukaemia), single dose 10 μM; read-out: Growth inhibition percentage (GI %)
# EKVX = assay: as above; conditions: Homo sapiens; EKVX (non-small cell lung cancer), single dose 10 μM; read-out: Growth inhibition percentage (GI %)
# SF-295 = assay: as above; conditions: Homo sapiens; SF-295 (CNS cancer), single dose 10 μM; read-out: Growth inhibition percentage (GI %)
# MDA-MB-468 = assay: as above; conditions: Homo sapiens; MDA-MB-468 (breast cancer), single dose 10 μM; read-out: Growth inhibition percentage (GI %)
# RXF 393 = assay: as above; conditions: Homo sapiens; RXF 393 (renal cancer), single dose 10 μM; read-out: Growth inhibition percentage (GI %)
# SK-MEL-2 = assay: as above; conditions: Homo sapiens; SK-MEL-2 (melanoma), single dose 10 μM; read-out: Growth inhibition percentage (GI %)
# LOX IMVI = assay: as above; conditions: Homo sapiens; LOX IMVI (melanoma), single dose 10 μM; read-out: Growth inhibition percentage (GI %)
# SK-MEL-5 = assay: as above; conditions: Homo sapiens; SK-MEL-5 (melanoma), single dose 10 μM; read-out: Growth inhibition percentage (GI %)
# SN 12C = assay: as above; conditions: Homo sapiens, SN12C; SN 12C (renal cancer), single dose 10 μM; read-out: Growth inhibition percentage (GI %)
# MOLT-4 = assay: as above; conditions: Homo sapiens; MOLT-4 (leukaemia), single dose 10 μM; read-out: Growth inhibition percentage (GI %)
# SK-MEL-28 = assay: as above; conditions: Homo sapiens; SK-MEL-28 (melanoma), single dose 10 μM; read-out: Growth inhibition percentage (GI %)
# SNB-75 = assay: as above; conditions: Homo sapiens; SNB-75 (CNS cancer), single dose 10 μM; read-out: Growth inhibition percentage (GI %)
# UACC-62 = assay: as above; conditions: Homo sapiens; UACC-62 (melanoma), single dose 10 μM; read-out: Growth inhibition percentage (GI %)
# HCT-116 = assay: as above; conditions: Homo sapiens; HCT-116 (colon cancer), single dose 10 μM; read-out: Growth inhibition percentage (GI %)
# SK-OV-3 = assay: NCI 60 antitumor screening (single dose); conditions: Homo sapiens; SK-OV-3 (ovarian cancer), single dose 10 μM; read-out: Growth inhibition percentage (GI %)
# How it was run: (§1)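 Values are GI% (100 − G%) from the NCI 60-line single-dose screen, compound at 10 μM.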
# NCI-H23 = assay: NCI 60 antitumor screening (single dose); conditions: Homo sapiens; NCI-H23 (non-small cell lung cancer), single dose 10 μM; read-out: Growth inhibition percentage (GI %)
# How it was run: as §1
# OVCAR-4 = assay: NCI 60 antitumor screening (single dose); conditions: Homo sapiens; OVCAR-4 (ovarian cancer), single dose 10 μM; read-out: Growth inhibition percentage (GI %)
# How it was run: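 Test compound added at 10 μM to each of 60 human cancer lines from nine tumour types; growth measured per NCI protocol in triplicate; percent growth converted to inhibition (100 − G%).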
# SR = assay: NCI 60 antitumor screening (single dose / five doses); conditions: Homo sapiens; SR (leukaemia), single dose 10 μM; read-out: Growth inhibition percentage (GI %)
# HCT-15 = assay: as above; conditions: Homo sapiens; HCT-15 (colon cancer), single dose 10 μM; read-out: Growth inhibition percentage (GI %)
# IGROV1 = assay: as above; conditions: Homo sapiens, IGROV-1; IGROV1 (ovarian cancer), single dose 10 μM; read-out: Growth inhibition percentage (GI %)
# BT-549 = assay: as above; conditions: Homo sapiens; BT-549 (breast cancer), single dose 10 μM; read-out: Growth inhibition percentage (GI %)
SMILES,Mean GI % [1] [%],inhibition at 10 µM (NCI/ADR-RES) [%],inhibition at 10 µM (DU-145) [%],inhibition at 10 µM (COLO 205) [%],inhibition at 10 µM (MDA-MB-231/ATCC) [%],inhibition at 10 µM (MDA-MB-435) [%],inhibition at 10 µM (HL-60(TB)) [%],inhibition at 10 µM (EKVX) [%],inhibition at 10 µM (SF-295) [%],inhibition at 10 µM (MDA-MB-468) [%],inhibition at 10 µM (RXF 393) [%],inhibition at 10 µM (SK-MEL-2) [%],inhibition at 10 µM (LOX IMVI) [%],inhibition at 10 µM (SK-MEL-5) [%],inhibition at 10 µM (SN 12C) [%],inhibition at 10 µM (MOLT-4) [%],inhibition at 10 µM (SK-MEL-28) [%],inhibition at 10 µM (SNB-75) [%],inhibition at 10 µM (UACC-62) [%],inhibition at 10 µM (HCT-116) [%],also measured
"Oc1ccccc1/C=N/Nc1nc(N/N=C/c2ccccc2O)nc(N2CCCCC2)n1 [compound 7a, 2-[(1e)-(2-{4-[(E)-2-[(2-Hydroxyphenyl)methylidene]hydrazin-1-yl]-6-(piperidin-1-yl)-1,3,5-triazin-2-yl}hydrazin-1-ylidene)methyl] phenol]",45.09,81,45.2,75.5,34.5,30.9,52.6,69.9,47.4,36.2,17,30.8,60.3,25.6,40.5,59.1,36.6,25.6,29.7,22,inhibition at 10 µM (A498): 17%; inhibition at 10 µM (SK-OV-3): 12%; inhibition at 10 µM (NCI-H23): 44.2%; inhibition at 10 µM (OVCAR-4): 70.9%; inhibition at 10 µM (SR): 60.2%; inhibition at 10 µM (HCT-15): 22.6%; inhibition at 10 µM (IGROV1): 54.8%
"Brc1ccccc1/C=N/Nc1nc(N/N=C/c2ccccc2Br)nc(N2CCCCC2)n1 [compound 7b, 2,4-Bis[(E)-2-[(2-Bromophenyl)methylidene]hydrazin-1-yl]-6-(piperidin-1-yl)-1,3,5-triazine]",−0.12,-2.41,-4.47,-5.18,2.05,-1.23,-3.87,4.52,-3.22,12.4,2.13,-1.28,1.94,5.12,5.69,-12.3,-0.81,-2.35,12.2,-2.25,inhibition at 10 µM (BT-549): -5.26%; inhibition at 10 µM (SK-OV-3): -0.76%; inhibition at 10 µM (NCI-H23): 4.71%; inhibition at 10 µM (OVCAR-4): 0.53%; inhibition at 10 µM (SR): -1.34%; inhibition at 10 µM (HCT-15): 1.2%; inhibition at 10 µM (IGROV1): 2.38%
